Values of other authors, collected in US20030216458A1, “Combination therapy for the treatment of migraine” (priority 1999, published 2003).

Details: anaesthetized dog

In the case of CNS(=O)(=O)Cc1ccc2[nH]cc(CCN(C)C)c2c1 [Sumatriptan], the “effect on carotid vascular resistance” value is given as “selective increase in carotid vascular resistance”.
